Experimental data from ChEMBL document CHEMBL5465560, “Selectivity Literature for EUbOPEN Chemogenomic Library” (2024).

Key:
[1] = biological target: Insulin receptor-related protein (Homo sapiens) (UniProt P14616); assay: Selectivity interaction (KinomeScan (DiscoverX)) EUB0000595a INSRR; conditions: at 10 µM
[2] = biological target: T1, cGMP-dependent protein kinase 2 (Homo sapiens) (UniProt Q13237); assay: Selectivity interaction (KinomeScan (DiscoverX)) EUB0000045b PRKG2
T1 sequence (whole entry): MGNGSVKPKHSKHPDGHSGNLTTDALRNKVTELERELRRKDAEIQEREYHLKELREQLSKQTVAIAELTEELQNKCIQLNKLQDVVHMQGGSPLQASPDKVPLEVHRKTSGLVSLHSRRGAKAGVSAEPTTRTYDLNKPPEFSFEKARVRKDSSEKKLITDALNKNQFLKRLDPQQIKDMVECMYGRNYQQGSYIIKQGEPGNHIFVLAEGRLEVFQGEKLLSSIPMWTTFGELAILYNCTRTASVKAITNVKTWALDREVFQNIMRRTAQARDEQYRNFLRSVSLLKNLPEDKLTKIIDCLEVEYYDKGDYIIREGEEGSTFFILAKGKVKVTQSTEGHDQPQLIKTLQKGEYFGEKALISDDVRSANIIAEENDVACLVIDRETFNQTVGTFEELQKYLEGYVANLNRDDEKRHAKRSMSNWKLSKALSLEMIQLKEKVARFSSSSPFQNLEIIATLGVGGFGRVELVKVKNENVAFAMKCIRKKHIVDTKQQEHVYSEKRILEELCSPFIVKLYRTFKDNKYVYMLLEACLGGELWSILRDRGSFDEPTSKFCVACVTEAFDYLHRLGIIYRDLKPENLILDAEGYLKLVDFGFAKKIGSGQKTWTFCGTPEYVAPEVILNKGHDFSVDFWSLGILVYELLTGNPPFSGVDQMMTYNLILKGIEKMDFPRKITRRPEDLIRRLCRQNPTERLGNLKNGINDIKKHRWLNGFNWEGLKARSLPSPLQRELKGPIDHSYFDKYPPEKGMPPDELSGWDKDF

[3] = biological target: T2, Mitogen-activated protein kinase kinase kinase 2 (Homo sapiens) (UniProt Q9Y2U5); assay: Selectivity interaction (KinomeScan (DiscoverX)) EUB0001079a MAP3K2; conditions: at 1 µM
T2 sequence (whole entry): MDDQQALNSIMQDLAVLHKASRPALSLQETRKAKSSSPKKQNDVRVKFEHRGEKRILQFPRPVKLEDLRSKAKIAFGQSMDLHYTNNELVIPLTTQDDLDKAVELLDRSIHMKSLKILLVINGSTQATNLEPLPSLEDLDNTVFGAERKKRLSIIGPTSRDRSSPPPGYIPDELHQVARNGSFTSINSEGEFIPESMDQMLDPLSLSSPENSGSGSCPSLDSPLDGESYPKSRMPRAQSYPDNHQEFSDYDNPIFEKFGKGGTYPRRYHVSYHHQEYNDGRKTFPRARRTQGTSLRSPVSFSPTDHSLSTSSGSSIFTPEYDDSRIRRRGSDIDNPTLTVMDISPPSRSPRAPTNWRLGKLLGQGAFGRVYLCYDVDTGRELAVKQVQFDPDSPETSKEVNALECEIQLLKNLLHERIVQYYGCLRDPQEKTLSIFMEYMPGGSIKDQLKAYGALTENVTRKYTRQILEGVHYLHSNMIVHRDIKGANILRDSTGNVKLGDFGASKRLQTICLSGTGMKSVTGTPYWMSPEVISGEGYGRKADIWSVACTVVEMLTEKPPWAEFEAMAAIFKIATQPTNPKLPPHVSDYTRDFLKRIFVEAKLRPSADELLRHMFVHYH

[4] = biological target: T3, Mitogen-activated protein kinase kinase kinase 6 (Homo sapiens) (UniProt O95382); conditions: at 10 µM
T3 sequence (whole entry): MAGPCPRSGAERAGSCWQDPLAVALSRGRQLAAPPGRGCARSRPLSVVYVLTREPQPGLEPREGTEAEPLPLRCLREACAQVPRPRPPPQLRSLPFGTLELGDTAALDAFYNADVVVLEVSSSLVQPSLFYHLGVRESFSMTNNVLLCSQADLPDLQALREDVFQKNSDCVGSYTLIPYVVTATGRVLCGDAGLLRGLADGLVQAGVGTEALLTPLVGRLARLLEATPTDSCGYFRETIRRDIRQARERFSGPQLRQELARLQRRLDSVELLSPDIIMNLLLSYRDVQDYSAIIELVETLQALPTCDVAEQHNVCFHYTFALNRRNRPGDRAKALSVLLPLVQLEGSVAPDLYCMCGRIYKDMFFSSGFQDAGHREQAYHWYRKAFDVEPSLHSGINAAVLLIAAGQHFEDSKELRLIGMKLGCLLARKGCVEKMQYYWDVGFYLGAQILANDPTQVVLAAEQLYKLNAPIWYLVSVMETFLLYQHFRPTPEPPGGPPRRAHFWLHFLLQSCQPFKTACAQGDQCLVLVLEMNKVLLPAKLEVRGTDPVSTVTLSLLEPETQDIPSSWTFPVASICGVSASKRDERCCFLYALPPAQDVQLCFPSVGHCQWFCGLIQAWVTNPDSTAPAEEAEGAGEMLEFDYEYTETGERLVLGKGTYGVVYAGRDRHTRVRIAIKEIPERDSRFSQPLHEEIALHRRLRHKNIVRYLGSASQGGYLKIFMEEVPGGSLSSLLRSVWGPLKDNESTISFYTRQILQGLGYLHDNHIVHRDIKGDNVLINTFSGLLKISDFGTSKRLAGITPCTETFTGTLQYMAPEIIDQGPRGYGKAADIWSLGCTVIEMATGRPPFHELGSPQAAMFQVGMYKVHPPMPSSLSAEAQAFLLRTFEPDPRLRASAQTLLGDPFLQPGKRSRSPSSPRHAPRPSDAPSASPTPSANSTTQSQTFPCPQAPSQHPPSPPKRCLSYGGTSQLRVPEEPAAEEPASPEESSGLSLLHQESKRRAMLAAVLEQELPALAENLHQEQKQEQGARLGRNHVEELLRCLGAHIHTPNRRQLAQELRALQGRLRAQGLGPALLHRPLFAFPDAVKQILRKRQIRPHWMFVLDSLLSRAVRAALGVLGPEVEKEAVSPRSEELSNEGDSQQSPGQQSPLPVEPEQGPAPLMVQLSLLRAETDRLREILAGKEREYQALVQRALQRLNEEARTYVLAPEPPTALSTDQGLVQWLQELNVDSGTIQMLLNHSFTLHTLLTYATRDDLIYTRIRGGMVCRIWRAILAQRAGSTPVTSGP

[5] = biological target: Estrogen receptor (Homo sapiens) (UniProt P03372); assay: Selectivity interaction (Eurofins CEREP Diversity Profile (receptors and ion channels)) EUB0000279b ESR1; conditions: at 10 µM
[6] = biological target: cGMP-inhibited 3',5'-cyclic phosphodiesterase 3A (Homo sapiens, UniProt Q14432); assay: Selectivity interaction (Phosphodiesterase 3 from human platelets ) EUB0000877a PDE3A; format: cell-based, Platelet
[7] = biological target: NT-3 growth factor receptor (Homo sapiens, UniProt Q16288); assay: Selectivity interaction (KinomeScan (DiscoverX)) EUB0001619a NTRK3; conditions: at 1 µM
Chain of NT-3 growth factor receptor (Q16288 32-839 limits assumed): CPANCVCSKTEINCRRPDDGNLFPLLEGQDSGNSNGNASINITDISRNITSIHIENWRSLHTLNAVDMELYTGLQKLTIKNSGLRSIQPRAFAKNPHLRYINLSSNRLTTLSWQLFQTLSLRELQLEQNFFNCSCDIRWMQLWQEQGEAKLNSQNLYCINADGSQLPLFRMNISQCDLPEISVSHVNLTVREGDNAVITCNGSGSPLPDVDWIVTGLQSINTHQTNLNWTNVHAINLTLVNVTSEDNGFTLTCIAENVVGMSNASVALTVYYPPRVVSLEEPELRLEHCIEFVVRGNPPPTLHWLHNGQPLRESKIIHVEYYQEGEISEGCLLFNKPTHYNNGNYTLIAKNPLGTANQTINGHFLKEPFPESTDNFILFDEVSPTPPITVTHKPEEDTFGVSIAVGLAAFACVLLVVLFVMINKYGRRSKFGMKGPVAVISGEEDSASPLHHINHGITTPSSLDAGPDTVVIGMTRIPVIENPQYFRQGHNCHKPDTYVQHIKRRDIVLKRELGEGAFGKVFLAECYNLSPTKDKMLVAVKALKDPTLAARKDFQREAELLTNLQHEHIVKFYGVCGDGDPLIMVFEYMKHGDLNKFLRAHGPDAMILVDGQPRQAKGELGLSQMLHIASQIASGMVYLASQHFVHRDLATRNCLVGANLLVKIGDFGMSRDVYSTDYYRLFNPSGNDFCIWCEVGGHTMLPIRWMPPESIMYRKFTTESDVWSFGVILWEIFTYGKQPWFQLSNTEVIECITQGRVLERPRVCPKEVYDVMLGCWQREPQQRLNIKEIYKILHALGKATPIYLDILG

Chain of Insulin receptor-related protein (Homo sapiens) (P14616 27-742 limits assumed): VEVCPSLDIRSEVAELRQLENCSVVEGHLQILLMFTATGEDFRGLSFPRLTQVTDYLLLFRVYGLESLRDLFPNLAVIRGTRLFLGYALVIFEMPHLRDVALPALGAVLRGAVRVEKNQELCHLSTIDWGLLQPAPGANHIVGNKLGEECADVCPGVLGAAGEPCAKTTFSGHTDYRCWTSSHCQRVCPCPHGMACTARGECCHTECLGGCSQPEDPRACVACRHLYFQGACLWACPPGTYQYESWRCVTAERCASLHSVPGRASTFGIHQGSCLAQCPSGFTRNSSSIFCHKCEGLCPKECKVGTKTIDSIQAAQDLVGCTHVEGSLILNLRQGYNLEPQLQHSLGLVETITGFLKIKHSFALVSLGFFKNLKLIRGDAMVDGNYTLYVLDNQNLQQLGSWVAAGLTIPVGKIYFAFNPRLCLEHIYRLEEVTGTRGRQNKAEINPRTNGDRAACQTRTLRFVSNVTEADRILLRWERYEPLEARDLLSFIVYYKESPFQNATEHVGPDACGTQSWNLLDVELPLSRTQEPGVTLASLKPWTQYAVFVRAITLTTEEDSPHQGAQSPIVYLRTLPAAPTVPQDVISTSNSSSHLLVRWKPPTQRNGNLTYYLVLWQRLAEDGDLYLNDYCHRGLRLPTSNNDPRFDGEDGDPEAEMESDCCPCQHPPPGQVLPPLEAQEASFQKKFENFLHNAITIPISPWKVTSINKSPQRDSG
Chain of Insulin receptor-related protein (Homo sapiens) (P14616 747-1297 limits assumed): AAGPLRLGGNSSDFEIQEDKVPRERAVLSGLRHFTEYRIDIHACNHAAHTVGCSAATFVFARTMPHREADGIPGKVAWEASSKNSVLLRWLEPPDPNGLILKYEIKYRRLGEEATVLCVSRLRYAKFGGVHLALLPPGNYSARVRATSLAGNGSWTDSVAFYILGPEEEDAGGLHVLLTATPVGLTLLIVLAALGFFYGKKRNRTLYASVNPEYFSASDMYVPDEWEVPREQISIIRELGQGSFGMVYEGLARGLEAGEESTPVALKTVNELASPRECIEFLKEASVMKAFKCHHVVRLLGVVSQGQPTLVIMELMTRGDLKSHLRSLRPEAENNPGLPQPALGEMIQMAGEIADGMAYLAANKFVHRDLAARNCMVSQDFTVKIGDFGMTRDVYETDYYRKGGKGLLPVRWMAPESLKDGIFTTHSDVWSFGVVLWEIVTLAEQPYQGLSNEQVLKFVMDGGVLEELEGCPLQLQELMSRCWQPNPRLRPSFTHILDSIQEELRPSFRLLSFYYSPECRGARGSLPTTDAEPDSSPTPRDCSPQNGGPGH
Chain of Estrogen receptor (Homo sapiens) (P03372 whole entry): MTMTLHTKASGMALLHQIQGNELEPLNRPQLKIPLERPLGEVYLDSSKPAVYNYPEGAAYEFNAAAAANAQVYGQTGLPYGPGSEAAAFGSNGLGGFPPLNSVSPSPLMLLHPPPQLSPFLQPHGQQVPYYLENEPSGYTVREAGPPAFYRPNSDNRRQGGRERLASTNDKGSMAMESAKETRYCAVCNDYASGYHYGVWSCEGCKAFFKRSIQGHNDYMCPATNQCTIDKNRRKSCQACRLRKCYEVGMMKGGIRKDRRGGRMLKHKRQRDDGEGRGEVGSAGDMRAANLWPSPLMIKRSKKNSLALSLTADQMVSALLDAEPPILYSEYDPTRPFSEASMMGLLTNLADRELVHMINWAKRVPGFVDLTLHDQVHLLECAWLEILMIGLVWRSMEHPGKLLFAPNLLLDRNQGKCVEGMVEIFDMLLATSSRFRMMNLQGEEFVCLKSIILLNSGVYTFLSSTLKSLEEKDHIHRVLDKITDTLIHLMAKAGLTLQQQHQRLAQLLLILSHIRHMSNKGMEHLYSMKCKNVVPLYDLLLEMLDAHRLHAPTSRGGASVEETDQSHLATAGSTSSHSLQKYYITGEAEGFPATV
Chain of cGMP-inhibited 3',5'-cyclic phosphodiesterase 3A (Q14432 whole entry): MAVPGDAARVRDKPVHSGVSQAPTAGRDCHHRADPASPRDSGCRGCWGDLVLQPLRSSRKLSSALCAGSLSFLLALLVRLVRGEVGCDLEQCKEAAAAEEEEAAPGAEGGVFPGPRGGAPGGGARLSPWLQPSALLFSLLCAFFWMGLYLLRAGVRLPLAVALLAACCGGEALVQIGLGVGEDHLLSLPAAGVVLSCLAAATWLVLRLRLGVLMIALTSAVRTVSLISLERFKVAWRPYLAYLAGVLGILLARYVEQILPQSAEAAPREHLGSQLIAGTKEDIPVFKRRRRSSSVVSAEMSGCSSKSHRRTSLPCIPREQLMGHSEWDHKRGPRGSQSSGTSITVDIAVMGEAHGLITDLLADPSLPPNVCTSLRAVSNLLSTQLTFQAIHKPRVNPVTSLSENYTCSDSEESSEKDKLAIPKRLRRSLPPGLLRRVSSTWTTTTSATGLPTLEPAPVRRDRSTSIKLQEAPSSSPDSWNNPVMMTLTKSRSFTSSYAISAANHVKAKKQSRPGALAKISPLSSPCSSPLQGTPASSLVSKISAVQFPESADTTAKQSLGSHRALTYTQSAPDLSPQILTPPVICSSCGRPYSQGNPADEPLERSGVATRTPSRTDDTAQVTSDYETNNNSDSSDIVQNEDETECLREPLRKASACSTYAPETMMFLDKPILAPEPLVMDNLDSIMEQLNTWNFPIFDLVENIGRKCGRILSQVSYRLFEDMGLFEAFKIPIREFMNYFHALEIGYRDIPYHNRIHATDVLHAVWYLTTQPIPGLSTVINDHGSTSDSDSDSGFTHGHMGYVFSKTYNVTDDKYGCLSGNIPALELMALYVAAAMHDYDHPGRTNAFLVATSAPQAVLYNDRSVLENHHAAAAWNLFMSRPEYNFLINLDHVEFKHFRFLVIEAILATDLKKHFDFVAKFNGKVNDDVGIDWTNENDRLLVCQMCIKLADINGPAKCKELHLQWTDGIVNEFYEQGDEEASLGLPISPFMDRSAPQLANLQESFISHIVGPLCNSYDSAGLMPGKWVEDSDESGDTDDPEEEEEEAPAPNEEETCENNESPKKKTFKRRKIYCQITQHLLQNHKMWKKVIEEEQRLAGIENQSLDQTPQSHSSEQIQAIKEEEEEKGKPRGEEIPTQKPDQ

Structure (SMILES): COCC(=O)NC/C=C/c1ccc2ncnc(Nc3ccc(Oc4ccc(C)nc4)c(C)c3)c2c1 [CP-724714]
- % of control [1]: 100%

Structure (SMILES): C=CC(=O)Nc1cc(-n2c(=O)ccc3cnc4ccc(-c5ccc(NS(C)(=O)=O)cc5)cc4c32)ccc1C
- % of control ([2]; at 1 µM): 100%
- % of control ([2]; at 10 µM): 95%

Structure (SMILES): Nc1cnc(N2CCc3cc(S(=O)(=O)Nc4c(F)cc(Cl)cc4F)cc(N4CCCC4=O)c32)nc1 [TP-020n]
- % of control [3]: 100%

Structure (SMILES): Cc1cc([C@@H](C)Nc2ccccc2C(=O)O)c2nc(N3CCOCC3)cc(=O)n2c1 [AZD-6482]
- % of control [4]: 95%

Structure (SMILES): CC(=O)c1cc(-c2ccccc2OCC2CC2)c2ncccn12
- % of control [5]: 98%

Structure (SMILES): CCC(=O)N1CC[C@H](Nc2ncnc3c2CN(c2cnc(OC)c(C(F)(F)F)c2)CC3)C1 [LENIOLISIB]
- IC50 [6]: > 30 µM

Structure (SMILES): N#Cc1cccc(-c2c[nH]c3ncnc(N4CCOCC4)c23)c1
- % of control [7]: 84%
